{"source": "ChEMBL document CHEMBL5365472", "about": "“DDD-028: A potent, neuroprotective, non-opioid compound for the treatment of diabetic neuropathy” (Bioorg Med Chem Lett, 2023)", "format_in_all_cases": "functional, organism-based", "key": {"[1]": {"tested_on": "Mus musculus", "test": "Anti-allodynic activity in mouse model of CCI induced neuropathic pain assessed as increase in paw withdrawal threshold at 3 mg/kg, po by static von frey test"}, "[2]": {"tested_on": "Rattus norvegicus", "test": "Anti-allodynic activity in rat model of STZ induced diabetic neuropathy assessed as reduction in mechanical hyperalgesia by measuring increase in weight bearing at 1 mg/kg, po measured after 30 min by paw pressure test"}, "[3]": {"tested_on": "Rattus norvegicus", "test": "Analgesic activity in rat acute pain model at 1 to 10 mg/kg by hot plate test", "conditions": "dose 1-10 mg/kg"}, "[4]": {"tested_on": "Rattus norvegicus", "test": "Analgesic activity in rat acute pain model at 1 to 10 mg/kg by tail flick test", "conditions": "dose 1-10 mg/kg"}, "[5]": {"tested_on": "Rattus norvegicus", "test": "Anti-allodynic activity in rat model of STZ induced diabetic neuropathy assessed as reduction in mechanical allodynia by measuring increase in paw withdrawal threshold at 1 mg/kg, po measured after 30 min by electronic von frey test"}, "[6]": {"tested_on": "Rattus norvegicus", "test": "Anti-allodynic activity in rat model of STZ induced diabetic neuropathy assessed as reduction in mechanical allodynia by measuring increase in paw withdrawal threshold at 25 mg/kg, po measured for 90 min by electronic von frey test"}, "[7]": {"tested_on": "Rattus norvegicus", "test": "Anti-allodynic activity in rat model of STZ induced diabetic neuropathy assessed as reduction in mechanical hyperalgesia by measuring increase in weight bearing at 25 mg/kg, po measured after 90 min by paw pressure test"}, "[8]": {"tested_on": "Rattus norvegicus", "test": "Analgesic activity in rat acute pain model at 3 mg/kg by hot plate test"}, "[9]": {"tested_on": "Rattus norvegicus", "test": "Analgesic activity in rat acute pain model at 3 mg/kg by tail flick test"}}, "note": "Activity calls are given as the source filed them.", "data": [{"compound": "CN1CCc2c(c3cccc4c3n2CCc2ccccc2-4)C1", "values": [{"measurement": "Activity", "setting": "[1]", "value": "Active"}, {"measurement": "Activity", "setting": "[2]", "value": "Active"}, {"measurement": "Activity", "setting": "[3]", "value": "inactive"}, {"measurement": "Activity", "setting": "[4]", "value": "inactive"}, {"measurement": "Activity", "setting": "[5]", "value": "Active"}, {"measurement": "Activity", "setting": "[6]", "value": "Active"}, {"measurement": "Activity", "setting": "[7]", "value": "Active"}]}, {"compound": "CN1CC[C@]23c4c5ccc(O)c4O[C@H]2[C@@H](O)C=C[C@H]3[C@H]1C5", "values": [{"measurement": "Activity", "setting": "[8]", "value": "Active"}, {"measurement": "Activity", "setting": "[9]", "value": "Active"}]}]}
